# Laboratory results published in patent US20180273970A1, “PLASMID, TRANSFORMED PLANT CELL AND TRANSGENIC PLANT COMPRISING THE SAME, AND METHODS FOR PREPARING A TRANSGENIC PLANT AND FOR INCREASING YIELD OF A PLANT UNDER ABIOTIC STRESSES” (Academia Sinica, priority 2014, published 2018).
# T1: GAD-SnRK1A (full-length SnRK1A 1-505 fused to the Gal4 activation domain) (rice, UniProt Q852Q2 1-505)
# T1 construct: range 1-505
# T1 sequence (looked up): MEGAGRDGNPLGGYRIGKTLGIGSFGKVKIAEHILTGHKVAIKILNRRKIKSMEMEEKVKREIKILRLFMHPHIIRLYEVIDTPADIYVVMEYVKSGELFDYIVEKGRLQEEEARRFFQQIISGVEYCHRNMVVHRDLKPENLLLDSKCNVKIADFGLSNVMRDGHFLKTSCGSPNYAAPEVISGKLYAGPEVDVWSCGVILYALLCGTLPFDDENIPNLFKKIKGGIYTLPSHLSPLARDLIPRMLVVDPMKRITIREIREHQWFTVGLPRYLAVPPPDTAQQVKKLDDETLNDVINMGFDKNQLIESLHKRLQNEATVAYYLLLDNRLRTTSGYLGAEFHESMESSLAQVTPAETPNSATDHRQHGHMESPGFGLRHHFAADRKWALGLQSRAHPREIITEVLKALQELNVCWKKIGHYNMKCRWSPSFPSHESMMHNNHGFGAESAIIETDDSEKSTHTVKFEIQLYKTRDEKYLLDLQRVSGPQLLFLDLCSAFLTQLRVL
# T2: SnRK1A (full length, expressed from Ubi:SnRK1A) (rice, UniProt Q852Q2 1-505)
# T2 construct: range 1-505; also called pUbi-SnRK1A-Nos
# T2 sequence (looked up): T1 sequence (looked up)
# B1: GBD-SKIN2 86-261 (other)
# chain: MKLLSSIEQACDICRLKKLKCSKEKPKCAKCLKNNWECRYSPKTKRSPLTRAHLTEVESRLERLEQLFLLIFPREDLDMILKMDSLQDIKALLTGLFVQDNVNKDAVTDRLASVETDMPLTLRQHRISATSSSEESSNKGQRQLTVSSKAKEVAVEVEGGGLGFHGLGTLESLEDALPIKRGLSNFYAGKSKSFTSLAEAAAKAAAKEIAKPENPFNKRRRVLAAWSRRRASCSSLATTYLPPLLAPDHAVVEEEDEEDDSDAEQCSGSGGGNRRREPTFPPPRLSLHAQKSSLTPRSSNPASSFRSPRSFSLSDLQNAGSYN
# B2: SKIN1-GFP (other)
# chain: MSTAVADVPPAAAYGFPGSAKRGKPEEVVVLMGKRRNEGFFIEEEEEEEEVLTESSSIGAPSPASSSIGENSGEEEGGDDEEEVESKLKAEDEQVGLGCLDALEESLPIKRGLSNFYAGKSKSFTSLAEATASPAAAANELAKPENPFNKRRRILATWSRRASCSSLATATYLPPLLAPDHAVAEGDEGEEEDDDSDDDERQHRGKNGGRRESAAPPLPLPPPRLTLHTQMGGMVRRNGTFRSPRSLSLSDLQNSGGSC
# notes: also called Ubi:SKIN1-GFP; SKIN-GFP; not shown: green fluorescence protein (GFP)
# Key:
# [1] = test system: rice seedlings; assay: Seedling shoot and root growth under light/dark cycle or continuous darkness, with or without sucrose; type: in vivo; conditions: 3% (88 mM) sucrose, 6 days
# Experimental: FIG. 5. SKINs repress seedling growth by inhibiting nutrient mobilization in the endosperm. Transgenic lines SKIN1-Ox(O3), SKIN1-Ri(R3), SKIN2-Ox(02) and SKIN2-Ri(R1) were used in the following experiments. (A) Seeds were germinated and grown in water at 28° C. under a 14-h light/10-h dark cycle or continuous darkness without (panel 1) or with (panel 2) 3% (90 mM) sucrose for 6 days. (B) Lengths of shoots and roots of seedlings in (A) were quantified. Panels 1 and 2, without and with sucrose, respectively. (C) Seedlings were grown under a 14-h light/10-h dark cycle or continuous darkness for 3 days. Total RNA was extracted and subjected to quantitative (real-time) RT-PCR analysis using primers specific for αAmy3 (panel 1) and EP3A (panel 2). Error bars represent SE (n=12) at significance levels: * p<0.1, **p<0.05 in (B) and (C).
# Rice (Oryza sativa cv Tainung 67) and barley (Hordeum vulgare cv Himalaya) were used in this study. Embryo calli were induced in the Murashige & Skoog (MS) medium containing 3% sucrose and […] 2,4-D (2,4-Dichlorophenoxyacetic acid) for 5 days. For hydroponic culture of rice seedlings, seeds were sterilized with 1.5% NaOCl plus Tween 20 for 1 h, washed extensively with distilled water, and germinated in a petri dish with wetted filter papers at 28° C. under a 14-h light/10-h dark condition unless otherwise indicated. […]
# [2] = test system: rice seedlings; assay: Seed germination and shoot elongation in air or under water (hypoxia); type: in vivo; conditions: under water with 90 mM sucrose
# Experimental: FIG. 6. SKINs suppress sugar production necessary for seedling growth under hypoxia. Rice seeds were germinated in air or in water with or without 90 mM sucrose at 28° C. under a 14-h light/10-h dark cycle for various lengths of time. Shoot length of seedlings were measured daily. Error bars indicate the S.E. of shoot length (n=10). Panel 1: transgenic line SKIN1-04 overexpressing SKIN1; panel 2: transgenic line SKIN2-04 overexpressing SKIN2. For data using more SKIN-Ox and SKIN-Ri lines, see also FIG. 16 online.
# FIG. 16. SKINs suppress sugar production necessary for underwater seedling growth. Rice seeds of SKIN-Ox and SKIN-Ri lines were germinated in air or in water with or without 90 mM sucrose for various lengths of time. Shoot length of seedlings were measured daily. Error bars indicate the S.E. of shoot length (n=10). Panel 1: in air; panel 2: in water; panel 3: in water with sucrose.
# The experiment was performed as described (Lee et al., 2009). For germination in air, seeds were placed on 3M filter papers wetted with water in a 50-ml centrifuge tube which contains half-strength MS agar medium. For germination under water, seeds were placed in a 50-ml centrifuge tube, autoclaved water was carefully poured into the tube to avoid any air bubbles, and tubes were sealed with lids.
# [3] = biological target: T1, GAD-SnRK1A (full-length SnRK1A 1-505 …); assay: rice embryo GAL4-UAS two-hybrid, luciferase reporter
# Experimental: FIG. 2. The N-terminus of SKIN interacts with the kinase domain of SnRK1A. For the GAL4-UAS two-hybrid assay, rice embryos were co-transfected with effector and reporter plasmids, incubated in −S medium for 24 h, and assayed for luciferase activity. The luciferase activity in rice embryos bombarded with effectors Ubi:GAD, Ubi:GBD and reporter 5XUAS-35S mp:Luc was set to 1×, and other values were calculated relative to this value. Error bars indicate the SE for three replicate experiments. Significance levels: * p<0.1, ** p<0.05. The Y axis indicates the relative luciferase activity with different constructs. (A) Plasmid constructs. (B) Rice embryos were co-transfected with effectors Ubi:GAD-SnRK1A and Ubi:GBD-SKIN (wild type or truncated) and reporter 5XUAS-35S mp:Luc. (C) Rice embryos were co-transfected with effectors Ubi:GAD-SnRK1A [wild type, kinase domain (KD) or regulatory (RD)], Ubi:GBD-SKIN and reporter 5XUAS-35S mp:Luc. (D) Rice embryos were co-transfected with effectors Ubi:GAD-SnRK1A and Ubi:GBD-SKIN and reporter 5XUAS-35S mp:Luc, and incubated in −S medium containing 1 μM ABA.
# Rice embryos were prepared for particle bombardment as described (Chen et al., 2006). The rice embryos were bombarded with reporter, effectors and internal control at a ratio of 4:2:1 for single effector or 4:2:2:1 for two effectors. […]
# [4] = biological target: T2, SnRK1A (full length, expressed from …); assay: co-expression and confocal localization of GFP fusions in barley aleurone cells
# Experimental: Detection of cellular localization of SKIN-GFP, SnRK1A-GFP and MYBS1-GFP fusion proteins were performed as described (Hong et al., 2012). Embryoless barley and rice seeds were sterilized with 1% NaOCl for 30 mins, and incubated in a buffer containing 20 mM CaCl₂ and 20 mM sodium succinate, pH 5.0, for 4 days. Aleurone layers were isolated by scratching away starch in the endosperm with a razor blade. Four aleurone layers were arranged in a 10-cm dish for bombardment. Aleurone layers expressing GFP were examined with a Ziess confocal microscope (LSM510META) using a 488-nm laser line for excitation and a 515- to 560-nm long pass filter for emission.
# The subcellular localization of SKIN and SnRK1A was determined. As SKINs interact with the KD of SnRK1A, the full-length, KD and RD of SnRK1A were fused to the green fluorescence protein (GFP) and expressed under the control of the Ubi promoter in a barley aleurone cell transient expression system (Hong et al., 2012). As shown in FIG. 7 and FIG. 17, SnRK1A-GFP and SnRK1A-KD-GFP were largely localized in the cytoplasm and minor in the nucleus and SnRK1A-RD-GFP mainly in the nucleus, whereas SKIN1-GFP was predominantly localized in the nucleus and minor in the cytoplasm. Co-expression of SnRK1A-GFP with SKIN1 excluded all SnRK1A-GFP from the nucleus. […]
molecule,measurement,setting,value
OC[C@H]1O[C@@](CO)(O[C@H]2O[C@H](CO)[C@@H](O)[C@H](O)[C@H]2O)[C@@H](O)[C@@H]1O [sucrose],Effect of sucrose on growth of SKIN-Ox lines,[1],recover the growth
same,Effect of sucrose on retarded shoot elongation of SKIN-Ox lines,[2],significantly recovered
B1,binding result,[3],no binding
B2,binding result,[4],binds
